Here are results for 56 compounds from patent US11225469B2, “Inhibitors of phosphoglycerate dehydrogenase (PHGDH) and uses thereof” (Whitehead Institute for Biomedical Research, priority 2015, dated 2022).

This test concerns the target PHGDH (Homo sapiens (Human), UniProt O43175). The test can be described thus: PHGDH inhibition, coupled assay with PSAT1/PSPH and diaphorase/resazurin readout. Type of test: biochemical. As to conditions: Table E9; mixture with PSAT1, PSPH; diaphorase/resazurin reporter. On the technique in general: Resazurin is reduced to fluorescent resorufin, in cell work by metabolically active cells.

SMILES strings stand for the structures.

Chain of PHGDH (O43175 whole entry): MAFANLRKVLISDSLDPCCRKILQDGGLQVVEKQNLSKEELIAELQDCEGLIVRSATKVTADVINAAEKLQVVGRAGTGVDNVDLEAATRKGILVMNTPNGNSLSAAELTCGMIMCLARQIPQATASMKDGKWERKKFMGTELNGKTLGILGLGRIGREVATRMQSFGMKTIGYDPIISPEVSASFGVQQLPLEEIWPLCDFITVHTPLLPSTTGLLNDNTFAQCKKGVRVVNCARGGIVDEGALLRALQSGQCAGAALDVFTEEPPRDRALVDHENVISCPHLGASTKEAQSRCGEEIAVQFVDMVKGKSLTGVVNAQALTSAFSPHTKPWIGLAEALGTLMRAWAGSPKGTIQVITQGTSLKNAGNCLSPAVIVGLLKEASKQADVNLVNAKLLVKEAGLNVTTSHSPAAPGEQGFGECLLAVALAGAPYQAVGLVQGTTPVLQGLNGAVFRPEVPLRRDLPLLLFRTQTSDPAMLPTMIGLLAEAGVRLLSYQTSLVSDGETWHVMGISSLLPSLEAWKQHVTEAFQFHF
Protocol: Compounds of the invention were assayed for inhibition of the activity phosphoglycerate dehydrogenase (PHGDH). The compounds were assayed in a mixture comprising PHGDH, PSAT1, PSPH, NADH, and glutamate. Diaphorase and resazurin were used as a fluorescent reporter system.
In this endogenous pathway coupled assay, the production of NADH by PHGDH was measured through the diaphorasemediated reduction of resazurin (See, e.g., Chakraborty, S., Sakka, M., Kimura, T. & Sakka, K. “Characterization of a dihydrolipoyl dehydrogenase having diaphorase activity of Clostridium kluyveri.” BioscL Biotechnol. Biochem. 72, 982-988 (2008)).
PHGDH assay buffer contained 50 mM TEA pH 8.0, 10 mM MgCl2, 0.05% BSA, and 0.01% Tween-20. PHGDH enzyme buffer consisted of assay buffer with 20 nM PHGDH and 0.2 mg/mL diaphorase. PHGDH substrate buffer contained 0.3 mM NAD 1.25 mM glutamate, 0.1 mM 3-phosphoglycerate, 0.2 mM resazurin, 1 μM PSAT1, and 1 μM PSPH. qHTS was performed in 1536-well plates dispensed with a BioRAPTR FRD. Each well contained equal volumes of substrate buffer and assay buffer. Plates were read at 0 minutes and 20 minutes at room temperature with a ViewLux uHTS Microplate Imager (PerkinElmer). Follow-up assays were performed in black 384-well plates (Greiner) in 20 μL of enzyme buffer to which compounds were added in dose-response with an HP D300 digital dispenser (Hewlett-Packard), followed by addition of 20 μL of substrate buffer. Plates were incubated at room temperature (25° C.) and read at 0 and 20 minutes with a Spectramax M5 plate reader (Molecular Devices) in fluorescence intensity mode with a λex=550 nm and λem=600 nm (emission cutoff=590 nm).

As to `COc1ccc(N2CCN(C(=S)Nc3cc(C)ccn3)CC2)cc1` [Compound 12], the concentration for half-maximal inhibition (IC50) is at least 20 µM.
Next, `Cc1cc(C)nc(NC(=S)N2CCN(Cc3cccc(OC(F)(F)F)c3)CC2)c1` [Compound 299]: under 5 µM; `COc1cccc(NC(=S)N2CCN(c3ccc(Cl)c(Cl)c3)CC2)n1` [Compound 191]: at least 20 µM.
In the case of `Cc1cc(C)nc(NC(=S)N2CCN(c3ncccn3)CC2)c1` [Compound 80] it was at least 20 µM; in that of `Cc1cc(NC(=S)N2CCN(c3cccc(C(F)(F)F)c3)CC2)nc2ccccc12` [Compound 127], at least 20 µM.
As for `Cc1cc(C)nc(NC(=S)N2CCN(c3ccc4nsnc4c3)CC2)c1` [Compound 163], the IC50 was 10 to 20 µM.
Next, `Cc1cc(C)nc(NC(=S)N2CCN(c3cccc4[nH]ccc34)CC2)c1` [Compound 155]: 10 to 20 µM.
On to `CCOC(=O)N1CCN(C(=S)Nc2cc(C)cc(C)n2)CC1` [Compound 259], for which the half-maximal inhibitory concentration (IC50) is at least 20 µM.
As to `COc1cc(NC(=S)N2CCN(c3cccc(C(F)(F)F)c3)CC2)nc2ccccc12` [Compound 130], the IC50 lay in the range of 10 to 20 µM.
For the compound `Cc1cc(C)nc(NC(=S)N2CCCC(NC(=O)c3ccc(C(F)(F)F)cc3)C2)c1` (centres unmarked) [Compound 264, N-(1-((4,6-dimethylpyridin-2-yl)carbamothioyl)piperidin-3-yl)-4-(trifluoromethyl)benzamide], the half-maximal inhibitory concentration (IC50) is under 5 µM.
In the case of `Cc1ccnc(NC(=S)N2CCN(c3cccc(C(F)(F)F)c3)CC2)n1` [Compound 126] it was 10 to 20 µM; in that of `Cc1cc(C)nc(NC(=S)N2CCN(c3ccc(Cl)nn3)CC2)c1` [Compound 165], at least 20 µM.
Next, `Cc1cc(C)nc(NC(=S)N2CCN(c3ccc(Cl)c(Cl)c3Cl)CC2)c1` [Compound 221]: at least 20 µM; `Cc1ccnc(NC(=S)N2CCN(c3cccc([N+](=O)[O-])c3)CC2)c1` [Compound 5]: at least 20 µM.
Next, `Cc1cc(C)nc(NC(=S)N2CCN(c3ccc([S+](C)(=O)[O-])cc3F)CC2)c1` [Compound 109]: at least 20 µM; `Cc1cc(C)nc(NC(=S)N2CCN(Cc3ccccn3)CC2)c1` [Compound 287, N-(4,6-dimethylpyridin-2-yl)-4-(pyridin-2-ylmethyl)piperazine-1-carbothioamide]: at least 20 µM; `Cn1c(NC(=S)N2CCN(c3cccc(C(F)(F)F)c3)CC2)nc2ccccc21` [Compound 229]: 5 to 10 µM.
On to `Cc1cc(C)nc(NC(=S)N2CCN(Cc3ccc(Br)cc3)CC2)c1` [Compound 281], for which the IC50 is 10 to 20 µM.
On to `Cc1cc(C)nc(NC(=S)N2CCN(c3ccc(N[S+](C)(=O)[O-])nn3)CC2)c1` [Compound 83], for which the IC50 was at least 20 µM.
In the case of `Cc1ccnc(NC(=S)N2CCN(c3ccc4ccccc4n3)CC2)c1` [Compound 177] it was 10 to 20 µM; in that of `Cc1cc(C)nc(NC(=S)N2CCN(c3cc(C#N)cc(C#N)c3)CC2)c1` [Compound 205], at least 20 µM; in that of `Cc1cc(C)nc(NC(=S)N2CCN(Cc3ccc(Cl)cc3)CC2)c1` [Compound 280], 10 to 20 µM.
Next, `Cc1cc(C)nc(NC(=S)N2CCN(c3ccsc3)CC2)c1` [Compound 166]: at least 20 µM; `Cc1cc(C)nc(NC(=S)N2CCN(c3ccc4c(c3)OCO4)CC2)c1` [Compound 167]: at least 20 µM.
On to `Cc1cc(C)nc(NC(=S)N2CCN(c3cncc4ccccc34)CC2)c1` [Compound 146], for which the IC50 lay in the range of 10 to 20 µM.
In the case of `Cc1cc(C)nc(NC(=S)N2CCN(c3ccccc3C#N)CC2)c1` [Compound 89] it was 10 to 20 µM.
Next, `FC(F)(F)c1cccc(N2CCN(C(=S)Nc3ncnc4ccccc34)CC2)c1` [Compound 143]: 5 to 10 µM.
In the case of `Cc1cc(C)nc(NC(=S)N2CCN(c3cc(Cl)cc(Cl)n3)CC2)c1` [Compound 207] it was at least 20 µM.
With `Cc1cccc(N2CCN(C(=S)Nc3cc(C)ccn3)CC2)c1` [Compound 39], the IC50 was 10 to 20 µM.
With `Cc1ccc(N2CCN(C(=S)Nc3cc(C)ccn3)CC2)cc1` [Compound 11], the IC50 is at least 20 µM.
In the case of `Cc1cc(C)nc(NC(=S)N2CCN(Cc3cccc(Br)c3)CC2)c1` [Compound 282] it was 10 to 20 µM; in that of `COc1cccc(NC(=S)N2CCN(c3ccc(Cl)cc3Cl)CC2)n1` [Compound 190], under 5 µM; in that of `Cc1cc(C)nc(NC(=S)N2CCN(c3cc(Cl)c(Cl)c(Cl)c3)CC2)c1` [Compound 206], at least 20 µM.
Next, `Cc1cc(C)nc(NC(=S)N2CCN(c3ccc(Cl)cc3C(F)(F)F)CC2)c1` [Compound 210]: 10 to 20 µM; `Cc1cc(C)nc(NC(=S)N2CCN(c3cccc([S+](C)[O-])c3)CC2)c1` (centres unmarked) [Compound 139]: at least 20 µM.
For `FC(F)(F)c1cccc(N2CCN(C(=S)Nc3ccncc3)CC2)c1` [Compound 31], the IC50 lay in the range of 10 to 20 µM.
Regarding `FC(F)(F)c1cnc(N2CCN(C(=S)Nc3cc(Cl)ccn3)CC2)c(Cl)c1` [Compound 202], the IC50 was in the range of 10 to 20 µM.
Next, `Cc1ccnc(NC(=S)N2CCN(c3ccc(C(F)(F)F)cc3[N+](=O)[O-])CC2)c1` [Compound 174]: 5 to 10 µM; `Cc1ccnc(NC(=S)N2CCN(c3cccc(C(F)(F)F)c3)C2)c1` [Compound 44]: at least 20 µM.
As for `Cc1cc(C)nc(NC(=S)N2CCN(c3cccc(OC(F)F)c3)CC2)c1` [Compound 135], the half-maximal inhibitory concentration (IC50) was under 5 µM.
Next, `Cc1cc(C)nc(NC(=S)N2CCN(Cc3ccc(F)cc3)CC2)c1` [Compound 279]: 10 to 20 µM.
For `Cc1cc(C)nc(NC(=S)N2CCN(CC(C)(C)C)CC2)c1` [Compound 269], the IC50 is under 5 µM.
Regarding `CCN1CCN(C(=S)c2ccc(O)cc2)CC1` [Compound 15], the IC50 was at least 20 µM.
In the case of `FC(F)(F)c1cccc(N2CCN(C(=S)Nc3nccc4ccccc34)CC2)c1` [Compound 32] it was 5 to 10 µM; in that of `Cc1cc(C)nc(NC(=S)N2CCN(CC3CCCCC3)CC2)c1` [Compound 255], under 5 µM; in that of `Cc1ccnc(NC(=S)N2CCN(c3ccc(C(F)(F)F)cc3)CC2)c1` [Compound 4], 5 to 10 µM.
Next, `COc1ccnc(NC(=S)N2CCN(c3ccc(Cl)cc3Cl)CC2)c1` [Compound 181]: 10 to 20 µM.
Consider `Cc1cc(C)nc(NC(=S)N2CCN(c3ccc(F)c(F)c3)CC2)c1` [Compound 214], for which the IC50 lay within 5 to 10 µM.
As to `Cc1cc(C)nc(NC(=S)N2CCN(c3ncccc3Cl)CC2)c1` [Compound 79], the 50% inhibitory concentration (IC50) is 10 to 20 µM.
Regarding `Cc1cc(C)nc(NC(=S)N2CCN(c3ccc(Cl)c(Cl)c3)CC2)c1` [Compound 92], the IC50 was at least 20 µM.
In the case of `Cc1cc(C)nc(NC(=S)N2CCN(c3cccc4nccn34)CC2)c1` [Compound 150] it was at least 20 µM.
For the compound `Cc1cc(C)nc(NC(=S)N2CCCC(Nc3cccc(C(F)(F)F)c3)C2)c1` (centres unmarked) [Compound 251], the IC50 is under 5 µM.
As for `Cc1cc(C)nc(NC(=S)N2CCN(c3ccc(N4CCCC4)nn3)CC2)c1` [Compound 84], the IC50 is at least 20 µM.
As for `Cc1cc(C)nc(NC(=S)N2CCN(Cc3ccccc3C(F)(F)F)CC2)c1` [Compound 278], the IC50 fell in the range of 10 to 20 µM.
For `FC(F)(F)c1cccc(N2CCN(C(=S)Nc3cc[nH]n3)CC2)c1` [Compound 237], the IC50 was at least 20 µM.
Next, `Cc1ccnc(NC(=S)NCCN(C)c2cccc(C(F)(F)F)c2)c1` [Compound 21]: at least 20 µM.

As a reminder, the IC50 is the concentration at which inhibition is half-maximal.
